Data on 22 compounds can be found in US10508085B2, “Compounds and methods for IDO and TDO modulation, and indications therefor” (Plexxikon Inc., priority 2016, dated 2019).

Read-outs that look alike come from different tables or passages of the source.

The target of assay [1] is T1, Human Indoleamine 2,3-dioxygenase (IDO) (Homo sapiens, UniProt P14902).
T1 construct: His tag (N); made in house; host or cells: E. coli
In words: Human IDO enzymatic assay (kynurenine level). It counts as biochemical. The note with it: 6 nM IDO, 10 μM L-Trp; geometric mean; read-out: IDO1 GMean: IC50 (μM) (Biochemical Assay). In short, it runs like this: (§1)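 N-terminally His-tagged enzymes expressed in E. coli were run in 50 mM sodium phosphate pH 6.5 with 10 mM ascorbate, catalase and Tween 20. IDO: 6 nM enzyme, 10 μM L-Trp, 5 μM methylene blue, 20 min RT. TDO: 1 nM enzyme, 350 μM L-Trp, 0.4 μM methylene blue, 70 min RT.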

In assay [2] the target is T2, Human Tryptophan 2,3-dioxygenase (TDO) (Homo sapiens, UniProt P48775).
T2 construct: His tag (N); made in house; host or cells: E. coli
In words: Human TDO enzymatic assay (kynurenine level). It counts as biochemical. To be noted: 1 nM TDO, 350 μM L-Trp; geometric mean; read-out: TDO GMean: IC50 (μM) (Biochemical Assay). In short, it runs like this:
as §1

Assay [3] has as its target T3, human IDO (IDO1-expressing HEK293 cells) (Homo sapiens, UniProt P14902).
T3 construct: expressed in transfected cells
The assay can be described thus: Cell based kynurenine assay, IDO1-expressing HEK293 cell clones. To be noted: IDO1-expressing HEK293 cells, geometric mean, read-out: HEK293 IDO1 Kynurenine GMean IC50 (μM) (Cellular Assay). In short, it runs like this: (§2)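 HEK293 clones stably expressing human IDO1 or human TDO (CMV promoter), 2.5×10^4 cells/well, given serial compound dilutions for 24 h. Kynurenine measured in supernatant; inhibition relative to cell/0.2% DMSO and media-only controls. IC50 by nonlinear regression.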

Assay [4] has as its target T4, human TDO (TDO-expressing HEK293 cells) (Homo sapiens, UniProt P48775).
T4 construct: expressed in transfected cells
The assay can be described thus: Cell based kynurenine assay, TDO-expressing HEK293 cell clones. To be noted: TDO-expressing HEK293 cells, geometric mean, read-out: HEK293 TDO Kynurenine GMean IC50 (μM) (Cellular Assay). The method in brief: as §2

T1 sequence (P14902 whole entry): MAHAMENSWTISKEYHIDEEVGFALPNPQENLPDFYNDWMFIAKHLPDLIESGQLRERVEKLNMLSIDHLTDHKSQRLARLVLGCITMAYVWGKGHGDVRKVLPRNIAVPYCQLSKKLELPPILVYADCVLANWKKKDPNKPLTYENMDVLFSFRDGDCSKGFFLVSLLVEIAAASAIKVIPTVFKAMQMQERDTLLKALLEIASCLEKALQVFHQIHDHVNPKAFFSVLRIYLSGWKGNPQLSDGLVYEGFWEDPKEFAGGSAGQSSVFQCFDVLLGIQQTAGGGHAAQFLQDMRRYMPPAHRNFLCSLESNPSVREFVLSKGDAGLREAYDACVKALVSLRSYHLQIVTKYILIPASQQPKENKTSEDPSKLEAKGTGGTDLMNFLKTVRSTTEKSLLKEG
T3 sequence (P14902 whole entry): as above
T4 sequence (P48775 whole entry): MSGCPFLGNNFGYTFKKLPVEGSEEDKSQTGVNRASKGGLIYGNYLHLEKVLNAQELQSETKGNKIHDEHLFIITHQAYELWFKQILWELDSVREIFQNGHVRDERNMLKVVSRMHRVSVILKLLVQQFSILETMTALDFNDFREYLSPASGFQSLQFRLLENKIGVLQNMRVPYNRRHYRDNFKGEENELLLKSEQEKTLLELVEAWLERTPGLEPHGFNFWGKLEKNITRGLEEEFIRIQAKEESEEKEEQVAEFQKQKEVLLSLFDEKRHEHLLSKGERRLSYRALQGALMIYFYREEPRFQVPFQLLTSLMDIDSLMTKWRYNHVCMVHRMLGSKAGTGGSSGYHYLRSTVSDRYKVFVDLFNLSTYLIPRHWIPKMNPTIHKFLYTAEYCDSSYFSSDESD
T2 sequence (P48775 whole entry): as above

As to `CC(=O)N1C[C@H]2CC[C@@H](C1)[C@@H]2C(F)(F)C(O)c1c(F)c(Cl)cc2cn[nH]c12` (stereo partly drawn) [Compound P-0139, 1-((1R,5S,8r)-8-(2-(5-chloro-6-fluoro-1H-indazol-7-yl)-1,1-difluoro-2-hydroxyethyl)-3-azabicyclo[3.2.l]octan-3-yl)ethan-l-one], the concentration for half-maximal inhibition (IC50) in assay [1], in assay [2], in assay [3] (24 hours incubation) and in assay [4] (24 hours incubation) was 0.0001 to 10 µM each time.
Consider `OC(c1c(Cl)c(Cl)cc2cn[nH]c12)C1CCC1` (stereo not shown) [Compound P-0237, cyclobutyl(5,6-dichloro-1H-indazol-7-yl)methanol], for which the IC50 in assay [1], in assay [2], in assay [3] (24 hours incubation) and in assay [4] (24 hours incubation) was 0.0001 to 10 µM throughout.
Regarding `CC(C)(C1CCCCC1)C(O)c1cc(Cl)cc2cn[nH]c12` (stereo not shown) [Compound P-0008, 1-(5-chloro-1H-indazol-7-yl)-2-cyclohexyl-2-methylpropan-1-ol], the IC50 in assay [1], in assay [2], in assay [3] (24 hours incubation) and in assay [4] (24 hours incubation) was 0.0001 to 10 µM in each case.
Consider `CC(C)(C1CCN(C(=O)C2C(C)(C)C2(C)C)CC1)[C@H](O)c1cc(Cl)cc2cn[nH]c12` [Compound P-0539, (S)-(4-(1-(5-chloro-1H-indazol-7-yl)-1-hydroxy-2-methylpropan-2-yl)piperidin-1-yl)(2,2,3,3-tetramethylcyclopropyl) methanone], for which the 50% inhibitory concentration (IC50) in assay [1], in assay [2], in assay [3] (24 hours) and in assay [4] (24 hours) was 0.0001 to 10 µM in each case.
On to `OC(c1c(Cl)c(Cl)cc2cn[nH]c12)C1(C2CCCCC2)CC1` (stereo not shown) [Compound P-0238, (1-cyclohexylcyclopropyl)(5,6-dichloro-1H-indazol-7-yl)methanol], for which the IC50 in assay [1], in assay [2], in assay [3] (24 hours incubation) and in assay [4] (24 hours incubation) was 0.0001 to 10 µM each time.
For `CC1(C(O)c2c(F)c(Cl)cc3cn[nH]c23)CCCCC1` (stereo not shown) [Compound P-0052, (5-chloro-6-fluoro-1H-indazol-7-yl)(1-methylcyclohexyl)methanol], the IC50 in assay [1], in assay [2], in assay [3] (24 hours incubation) and in assay [4] (24 hours incubation) was 0.0001 to 10 µM throughout.
In the case of `O=C(NC1CCS(=O)(=O)CC1)N1CCC(C(F)(F)C(O)c2cc(Cl)cc3cn[nH]c23)CC1` (stereo not shown) [Compound P-0463, 4-(2-(5-chloro-1H-indazol-7-yl)-1,1-difluoro-2-hydroxyethyl)-N-(1,1-dioxidotetrahydro-2H-thiopyran-4-yl)piperidine-1-carboxamide], the IC50 in assay [1] is 0.0001 to 10 µM; in assay [2] it was 0.0001 to 10 µM; in assay [3] (24 hours) it was 0.0001 to 10 µM; in assay [4] (24 hours) it was over 10 µM.
Turning to `O=C(NCC1CCOCC1)N1CCC(C(F)(F)C(O)c2cc(Cl)cc3cn[nH]c23)CC1` (stereo not shown) [Compound P-0468, 4-(2-(5-chloro-1H-indazol-7-yl)-1,1-difluoro-2-hydroxyethyl)-N-((tetrahydro-2H-pyran-4-yl)methyl)piperidine-1-carboxamide], the concentration for half-maximal inhibition (IC50) in assay [1], in assay [2], in assay [3] (24 hours) and in assay [4] (24 hours) was 0.0001 to 10 µM throughout.
`CC(C)(C1CCN(C(=O)Nc2ccc(F)nc2)CC1)C(O)c1cc(Cl)cc2cn[nH]c12` (stereo not shown) [Compound P-0558, 4-(1-(5-chloro-1H-indazol-7-yl)-1-hydroxy-2-methylpropan-2-yl)-N-(6-fluoropyridin-3-yl)piperidine-1-carboxamide]: the IC50 in assay [1], in assay [2], in assay [3] (24 hours) and in assay [4] (24 hours) was 0.0001 to 10 µM each time.
For `CC1(C(O)c2cc(Cl)cc3cn[nH]c23)CC2CC2C1` (stereo not shown) [Compound P-0228, (5-chloro-1H-indazol-7-yl)(3-methylbicyclo[3.1.0]hexan-3-yl)methanol], the IC50 in assay [1], in assay [2], in assay [3] (24 hours incubation) and in assay [4] (24 hours incubation) was 0.0001 to 10 µM each time.
Regarding `CC(=O)N1CCC(C(C)(C)C(O)c2cc(Cl)cc3cn[nH]c23)CC1` (stereo not shown) [Compound P-0310, 1-(4-(1-(5-chloro-1H-indazol-7-yl)-1-hydroxy-2-methylpropan-2-yl)piperidin-1-yl)ethan-1-one], the IC50 in assay [1], in assay [2], in assay [3] (24 hours incubation) and in assay [4] (24 hours incubation) was 0.0001 to 10 µM throughout.
Take `CC(C)(C1CCN(C(=O)CO)CC1)C(O)c1cc(Cl)cc2cn[nH]c12` (stereo not shown) [Compound P-0461, 1-(4-(1-(5-chloro-1H-indazol-7-yl)-1-hydroxy-2-methylpropan-2-yl)piperidin-1-yl)-2-hydroxyethan-1-one]: the IC50 in assay [1], in assay [2], in assay [3] (24 hours) and in assay [4] (24 hours) was 0.0001 to 10 µM throughout.
Take `CC(C)(CN1CCCC1)C(O)c1cc(Cl)cc2cn[nH]c12` (stereo not drawn) [Compound P-0202, 1-(5-chloro-1H-indazol-7-yl)-2,2-dimethyl-3-(pyrrolidin-1-yl)propan-l-ol]: the IC50 in assay [1] was 10 to 100 µM; in assay [2], 0.0001 to 10 µM; in assay [3] (24 hours incubation), over 10 µM; in assay [4] (24 hours incubation) it was over 10 µM.
For the compound `CC(C)C(=O)N1CCC(C(C)(C)C(O)c2cc(Cl)cc3cn[nH]c23)CC1` (stereo not shown) [Compound P-0413, 1-(4-(1-(5-chloro-1H-indazol-7-yl)-1-hydroxy-2-methylpropan-2-yl)piperidin-1-yl)-2-methylpropan-1-one], the IC50 in assay [1], in assay [2], in assay [3] (24 hours) and in assay [4] (24 hours) was 0.0001 to 10 µM in each case.
Regarding `CC(C)(C1CCN(C(=O)Nc2ccccc2C(F)(F)F)CC1)C(O)c1cc(Cl)cc2cn[nH]c12` (stereo not shown) [Compound P-0401, 4-(1-(5-chloro-1H-indazol-7-yl)-1-hydroxy-2-methylpropan-2-yl)-N-(2-(trifluoromethyl)phenyl)piperidine-1-carboxamide], the concentration for half-maximal inhibition (IC50) in assay [1], in assay [2], in assay [3] (24 hours incubation) and in assay [4] (24 hours incubation) was 0.0001 to 10 µM in each case.
Take `CC(C)(C1CCN(S(=O)(=O)c2ccccc2)CC1)C(O)c1cc(Cl)cc2cn[nH]c12` (stereo not shown) [Compound P-0309, 1-(5-chloro-1H-indazol-7-yl)-2-methyl-2-(1-(phenylsulfonyl)piperidin-4-yl)propan-1-ol]: the IC50 in assay [1], in assay [2], in assay [3] (24 hours incubation) and in assay [4] (24 hours incubation) was 0.0001 to 10 µM each time.
In the case of `CCS(=O)(=O)N1CCC(C(C)(C)[C@H](O)c2cc(Cl)cc3cn[nH]c23)CC1` [Compound P-0557, (S)-1-(5-chloro-1H-indazol-7-yl)-2-(1-(ethylsulfonyl)piperidin-4-yl)-2-methylpropan-1-ol], the IC50 in assay [1], in assay [2], in assay [3] (24 hours) and in assay [4] (24 hours) was 0.0001 to 10 µM each time.
Take `OC(c1cc(Cl)cc2cn[nH]c12)C1(C(F)(F)F)CC1` (stereo not shown) [Compound P-0119, (5-chloro-1H-indazol-7-yl)(1-(trifluoromethyl)cyclopropyl)methanol]: the IC50 in assay [1], in assay [2], in assay [3] (24 hours incubation) and in assay [4] (24 hours incubation) was 0.0001 to 10 µM in each case.
Take `CC(C)(C1CCN(C(=O)Nc2ccc(F)cc2)CC1)[C@H](O)c1c(F)c(Cl)cc2cn[nH]c12` [Compound P-0512, (S)-4-(1-(5-chloro-6-fluoro-1H-indazol-7-yl)-1-hydroxy-2-methylpropan-2-yl)-N-(4-fluorophenyl) piperidine-1-carboxamide]: the IC50 in assay [1], in assay [2], in assay [3] (24 hours) and in assay [4] (24 hours) was 0.0001 to 10 µM in each case.
Turning to `CC(C)(C1CCN(C(=O)OCC(F)(F)F)CC1)C(O)c1cc(Cl)cc2cn[nH]c12` (stereo not shown) [Compound P-0177, 2,2,2-trifluoroethyl 4-(1-(5-chloro-1H-indazol-7-yl)-1-hydroxy-2-methylpropan-2-yl)piperidine-1-carboxylate], the IC50 in assay [1], in assay [2], in assay [3] (24 hours incubation) and in assay [4] (24 hours incubation) was 0.0001 to 10 µM in each case.
As for `CS(=O)(=O)N1C2CCC1CN(c1c(F)c(Cl)cc3cn[nH]c13)C2` [Compound P-0096, 5-chloro-6-fluoro-7-(8-(methylsulfonyl)-3,8-diazabicyclo[3.2.1]octan-3-yl)-1H-indazole], the IC50 in assay [1] is 0.0001 to 10 µM; in assay [2], 0.0001 to 10 µM; in assay [3] (24 hours incubation), over 10 µM; in assay [4] (24 hours incubation), 0.0001 to 10 µM.
For the compound `O=C(NC1CC1)N1CCC(C(F)(F)C(O)c2cc(Cl)cc3cn[nH]c23)CC1` (stereo not shown) [Compound P-0185, 4-(2-(5-chloro-1H-indazol-7-yl)-1,1-difluoro-2-hydroxyethyl)-N-cyclopropylpiperidine-1-carboxamide], the half-maximal inhibitory concentration (IC50) in assay [1], in assay [2], in assay [3] (24 hours incubation) and in assay [4] (24 hours incubation) was 0.0001 to 10 µM throughout.
